What follows are compounds tested against T1, Δ^5 -lipoxygenase from rat basophilic leukemia (RBL-1) cells (Rattus norvegicus, UniProt P12527) (assay: In vitro test for Δ^5 -lipoxygenase inhibitors (5-LO), RBL-1 cell enzyme, 5-HETE radioimmunoassay). Conditions: RBL-1 5-LO; 10 min preincubation; 8.25 μM arachidonic acid, 10 min at 37° C.; 5-HETE formation; read-out: 5-LO IC-50.
T1 construct: endogenous in cells; host or cells: RBL-1 rat basophilic leukemia cells (ATCC CRL 1378); 113,000×g supernatant (cytosolic fraction)
T1 sequence (P12527 1-673): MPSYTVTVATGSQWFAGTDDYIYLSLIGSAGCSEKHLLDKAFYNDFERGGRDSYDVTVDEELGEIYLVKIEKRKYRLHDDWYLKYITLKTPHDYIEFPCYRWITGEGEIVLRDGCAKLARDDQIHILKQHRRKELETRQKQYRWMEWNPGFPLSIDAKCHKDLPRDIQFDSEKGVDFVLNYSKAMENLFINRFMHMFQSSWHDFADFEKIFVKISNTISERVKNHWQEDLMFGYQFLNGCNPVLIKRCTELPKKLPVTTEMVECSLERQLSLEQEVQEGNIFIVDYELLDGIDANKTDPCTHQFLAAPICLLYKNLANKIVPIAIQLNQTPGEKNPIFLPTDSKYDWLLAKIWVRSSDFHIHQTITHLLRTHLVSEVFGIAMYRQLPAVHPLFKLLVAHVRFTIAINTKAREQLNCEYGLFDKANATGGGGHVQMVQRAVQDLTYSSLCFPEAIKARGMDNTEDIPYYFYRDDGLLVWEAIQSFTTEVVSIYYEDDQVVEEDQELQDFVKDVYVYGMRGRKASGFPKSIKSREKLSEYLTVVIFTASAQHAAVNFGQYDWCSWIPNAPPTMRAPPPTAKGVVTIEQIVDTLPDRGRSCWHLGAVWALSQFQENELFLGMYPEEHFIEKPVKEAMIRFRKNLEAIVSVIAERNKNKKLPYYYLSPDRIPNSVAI
Format: biochemical
Method in brief: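 Cytosolic (113,000×g supernatant) 5-LO from RBL-1 cells was preincubated with compound 10 min at 30° C, then reacted 10 min at 37° C with 8.25 μM arachidonic acid in Tris-HCl pH 7.2 with glutathione, indomethacin, CaCl2 and ATP. The reaction was stopped with citric acid (pH 3.5), and 5-HETE formed was quantified by radioimmunoassay.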

Row | Structure (SMILES) | IC50 [nM]
1 | Cc1c(C)c2c(c(C)c1O)CCC(C)(C#Cc1ccccc1O)O2 (racemic) [Example 50 (2-HO-phenyl), rac-3,4-Dihydro-2-[(2-hydroxyphenyl)ethynyl]-2,5,7,8-tetramethyl-2H-1-benzopyran-6-ol] | 6
2 | Cc1c(C)c2c(c(C)c1O)CCC(C)(c1cc3ccccc3o1)O2 (racemic) [Example 50 (CH; H, H, H), rac-2-(2-Benzofuranyl)-3,4-dihydro-2,5,7,8-tetramethyl-2H-1-benzopyran-6-ol] | 12
3 | Cc1ccc2oc(C3(C)CCc4c(C)c(O)c(C)c(C)c4O3)cc2n1 (racemic) [Example 51, rac-3,4-Dihydro-2-(5-methylfuro[3,2[b]pyridin-2-yl)-2,5,7,8-tetramethyl-2H-1-benzopyran-6ol] | 3
4 | Cc1c(C)c2c(c(C)c1O)CCC(C)(c1cc3ncccc3o1)O2 (racemic) [Example 52, rac-3,4-Dihydro-2-(furo[3,2-b]pyridine-2-yl)-2,5,7,8-tetramethyl-2H-1-benzopyran-6-ol] | 18
5 | CCCc1c(O)c(C(C)=O)cc2cc(C3(C)CCc4c(C)c(O)c(C)c(C)c4O3)oc12 (racemic) [Example 53, rac-1-2-(3,4-Dihydro-6-hydroxy-2,5,7,8-tetramethyl-2H-1-benzopyran-2-yl)-6-hydroxy-7-propylbenzofuran-5-yl]ethanone] | 17
6 | COc1cc(CO)cc2cc(C3(C)CCc4c(C)c(O)c(C)c(C)c4O3)oc12 (racemic) [Example 55, rac-2-(3,4-Dihydro-6-hydroxy-2,5,7,8-tetramethyl-2H-1-benzopyran-2-yl)-7-methoxybenzofuran-5-methanol] | 3
7 | Cc1c(C)c2c(c(C)c1O)CCC(C)(CCc1cccs1)O2 (racemic) [Example 57, rac-3,4-Dihydro-2,5,7,8-tetramethyl-2-[2-(2-thienyl)ethyl]-2H-1-benzo-pyran-6-ol] | 50
8 | Cc1c(C)c2c(c(C)c1O)CCC(C)(CCc1ccccn1)O2 (racemic) [Example 58, rac-3,4-Dihydro-2,5,7,8-tetramethyl-2-[2-(2-pyridinyl)ethyl]-2H-1-benzopyran-6-ol] | 60
9 | Cc1c(C)c2c(c(C)c1O)CC[C@](C)(C#Cc1cccs1)O2 [Example 5, (R)-3,4-Dihydro-2,5,7,8-tetramethyl-2-[(2-thienyl)ethynyl]-2H-1-benzopvran-6-ol] | 15
10 | Cc1c(C)c2c(c(C)c1O)CC[C@@](C)(C#Cc1cccs1)O2 [Example 13, (S)-3,4-Dihydro-2,5,7,8-tetramethyl-2-[(2-thienyl)ethynyl]-2H-1-benzopyran-6-ol] | 17
11 | Cc1c(C)c2c(c(C)c1O)CCC(C)(C#Cc1ccc3c(c1)N(C)C(=O)CO3)O2 (stereo not shown) [Example 48] | 32

The next lines start with the values.

Row | IC50 [nM] | Structure (SMILES)
12 | 30 | Cc1c(C)c2c(c(C)c1O)CCC(C)(CCc1cccnc1)O2 (racemic) [Example 59, rac-3,4-Dihydro-2,5,7,8-tetramethyl-2-[2-(3-pyridinyl)ethyl]-2H-1-benzopyran-6-ol]
13 | 56 | COc1ccc(CCC2(C)CCc3c(C)c(O)c(C)c(C)c3O2)cc1OC(C)=O (racemic) [Example 60, rac-2-{2-[3-(Acetyloxy)-4-methoxyphenyl]ethyl}-3,4-dihydro-2,5,7,8-tetramethyl-2H-1-benzopyran-6ol]
14 | 15 | Cc1c(C)c2c(c(C)c1O)CCC(C)(CCc1ccc(O)c(O)c1)O2 (racemic) [Example 61, rac-4-[2-(3,4-Dihydro-6-hydroxy-2,5,7,8-tetramethyl-2H-1-benzopyran-2-yl)ethyl]-1,2-benzenediol]
15 | 120 | COc1cccc(CCC2(C)CCc3c(C)c(O)c(C)c(C)c3O2)c1 (racemic) [Example 62, rac-3,4-Dihydro-2-[2-(3-methoxyphenyl)ethyl]-2,5,7,8-tetramethyl-2H-1-benzopyran-6-ol]
16 | 80 | COC(=O)c1cc(CCC2(C)CCc3c(C)c(O)c(C)c(C)c3O2)ccc1O (racemic) [Example 63, rac-5-[2-(3,4-Dihydro-6-hydroxy-2,5,7,8-tetramethyl-2H-1-benzopyran-2-yl)ethyl]-2-hydroxybenzoic acid methyl ester]
17 | 46 | Cc1c(C)c2c(c(C)c1O)CCC(C)(CCc1ccc(-c3cccnc3)cc1)O2 (racemic) [Example 64, rac-3,4-Dihydro-2,5,7,8-tetramethyl-2-{2-[4-(3-pyridinyl)-phenyl]ethyl}-2H-1-benzopyran-6-ol]
18 | 170 | Cc1c(C)c2c(c(C)c1O)CCC(C)(CCc1ccc(-c3ccccn3)s1)O2 (racemic) [Example 65, rac-3,4-Dihydro-2,5,7,8-tetramethyl-2-{2-[5-(2-pyridinyl)-2-thienyl]ethyl}-2H-1-benzopyran-6ol]
19 | 140 | CCCCc1ccc(CCC2(C)CCc3c(C)c(O)c(C)c(C)c3O2)s1 (racemic) [Example 66, rac-2-[2-(5-Butyl-2-thienyl)ethyl]-3,4-dihydro-2,5,7,8-tetramethyl-2H-1-benzopyran-6-ol]
